Experimental data taken from patent US20060251714A1, “Pharmaceutical formulations of amyloid inhibiting compounds” (priority 2005, published 2006).
Read-outs that look alike come from different tables or passages of the source.

Tests used:
[1] = Example 7 Part II: food effect, single oral 200 mg 3-APS in young male subjects, plasma pharmacokinetics; type: in vivo, human; conditions: single oral 200 mg (Table 3 formulation); for Cmax: male, po, 200 mg
Protocol: (§1) In the following examples and elsewhere herein, terms are as defined below. The pharmacokinetic parameters were derived by non-compartmental analysis using WinNonlin® (Pharsight Corporation, Mountain View, Calif.) or SAS® for Windows® (SAS Institute Inc., Cary, N.C.).
Following single oral dosing of 200 mg 3-APS (modified-release coated formulation as described in Table 3 above) to young male subjects (aged between 18 and 45 years) under fasted and fed (high fat) conditions, maximum plasma concentrations of 3-APS are attained […] post-dose under fasted and fed conditions, respectively (Table 9A).

[2] = Example 9 Part II: food effect, single oral 100 mg 3-APS in elderly subjects, plasma pharmacokinetics; type: in vivo; conditions: both sexes, human, single oral 100 mg (Table 5 tablet), elderly male and female subjects; for AUC(0-inf) / Cmax / AUC(0-t): po, 100 mg; for AUC(0-inf): mean, only subjects with estimable elimination rate constant; for Cmax / AUC(0-t): n = 8, mean; for AUC(0-t): read-out: AUC0-Tlast
Protocol: as §1
Following single oral dosing of 100 mg 3-APS (modified-release coated formulation modified-release enteric-coated tablet as described in Table 5 above) to elderly (55 years or older) male and female subjects under fasted and fed (high fat) conditions, maximum plasma concentrations of 3-APS are attained at 5 and 10.5 h post-dose under fasted and fed conditions, respectively (Table 12A below and FIG. 5 showing the Mean Plasma Concentration-Time Profiles of 3-APS under Fasted and Fed Conditions following Single Oral Administration of 100 mg to Elderly Male and Female Subjects).

[3] = Example 10: 3-APS concentration in cerebrospinal fluid of AD patients; type: in vivo; conditions: human
Excerpt: A multicenter, randomized, double-blind, placebo-controlled and parallel designed study is made with 3-APS in the formulation described in Table 5 above in patients suffering from mild to moderate Alzheimer's Disease (AD). An objective of this study is to assess the safety and tolerability of 3-APS and to assess its pharmacokinetics in AD patients. A total of fifty-eight (58) mild to moderate AD patients (MMSE scores=13 to 26) are enrolled from 6 centers in the United States. Patients are randomized to receive in 1:1:1:1 ratio of NC-758-1 at 50, 100, 150 mg BID or placebo BID for 12 weeks. Study medication is administered orally (tablet). For doses at multiples of 50 mg, multiple 50 mg tables are administered. Each patient is evaluated on 6 occasions at screening, baseline [Week 0], weeks 2, 4, 8 and 12. Blood samples are collected from each patient prior to dosing and at specified time points through 12 h post-dose after the first dose (Week 0) and the last dose (Week 12). Blood samples are also collected prior to the first dose of the day during Week 2, 4 and 8 visits.
(Patients having a CSF level below the lower limit of quantitation of the assay are considered as zero.) CSF concentrations of 3-APS on Day 2 of Week 12 after twice daily oral administration for 12 weeks are as follows: […]

[4] = Example 11: additional tests, crossing of the blood/brain barrier; type: in vivo, human; conditions: treated AD patients
[5] = Example 12: Phase II pilot study in CAA patients with lobar cerebral hemorrhage, plasma pharmacokinetics; type: in vivo, human; conditions: for AUC(0-inf) / Cmax / AUC(0-t): human, plasma, oral; for AUC(0-inf): mean, only patients with estimable elimination rate constant
Excerpt: as §1
AUCss—the area under the plasma concentrations versus time curve during a dosing interval at steady state.
A Phase II pilot study of the safety, tolerability and pharmacokinetics of 3-APS (formulation of Table 5 above) in patients with lobar cerebral hemorrhage related to Cerebral Amyloid Angiopathy (CAA). For doses at multiples of 50 mg, multiple 50 mg tables are administered. A multicenter, randomized, double-blind, and parallel designed study is conducted in the United States with 3-APS in patients who survived a lobar cerebral hemorrhage related to cerebral amyloid angiopathy (CAA). The main objective of this study is to assess the safety and tolerability of 3-APS and to characterize its pharmacokinetics in CAA patients.
A total of 24 patients who have had lobar cerebral hemorrhage are randomized to receive in a 1:1:1 ratio 3-APS 50, 100 or 150 mg BID for 12 weeks. A lumbar puncture is performed on an optional basis at Weeks 0 and 12 to assess the pharmacological effect of 3-APS on Aβ40, Aβ42 and tau concentrations in cerebrospinal fluid (CSF) and to measure the drug concentration in the CSF. Rating instruments (NIHSS, Barthel Index, ADAS-cog and EXIT25) are administered at Weeks 0 and 12 to evaluate the neurological and cognitive functions as well as the daily functioning.
For pharmacokinetic investigations, blood samples are collected from each patient prior to dosing and at specified time points through 12 h post-dose after the first dose (Week 0) and the last dose (Week 12). Blood samples are also collected prior to the first dose of the day during Week 2, 4 and 8 visits. CSF samples are obtained by lumbar puncture prior to dosing on Week 0 and approximately 5 hours post-dose on Week 12.

[6] = Example 13: single 150 mg dose of Modified-Release Coated Tablets in healthy elderly male volunteers, plasma pharmacokinetics; type: in vivo; conditions: human, single oral 150 mg (3 × 50 mg Table 5 tablets), elderly male subjects; for AUC(0-inf) / Cmax / AUC(0-t): male, po, 150 mg; for AUC(0-t): read-out: AUC0-Tlast
Protocol: as §1
For the 150 mg dose, three 50 mg tables are administered.

[7] = Fasting Conditions, n = 11, mean

NCCCS(=O)(=O)O [3-APS, 3-amino-1-propanesulfonic acid]
AUC(0-inf) ([1]; human, plasma, Fasting Arm, mean, only subjects with estimable elimination rate constant): 2400 ng·h/mL | AUC(0-t) ([1]; human, plasma, Fed Arm (high fat), n = 8, mean, read-out: AUC0-Tlast): 3870 ng·h/mL | Tmax ([1]; human, plasma, Fed Arm (high fat), n = 8, median): 13.5 h | Cmax ([1]; human, plasma, Fasting Arm, n = 8, mean): 594 ng/mL | Cmax ([1]; human, plasma, Fed Arm (high fat), n = 8, mean): 631 ng/mL | AUC0-Tlast ([1]; Fasting Arm, n = 8, mean): 2196 ng·h/mL | AUC∞ ([1]; Fed Arm (high fat), mean, only subjects with estimable elimination rate constant): 4497 ng·h/mL | AUC(0-inf) ([2]; Fasting Arm): 3290 ng·h/mL | Cmax ([2]; Fasting Arm): 931 ng/mL | AUC(0-t) ([2]; Fasting Arm): 3220 ng·h/mL | AUC(0-inf) ([2]; Fed Arm (high fat)): 2830 ng·h/mL | Cmax ([2]; Fed Arm (high fat)): 671 ng/mL | AUC(0-t) ([2]; Fed Arm (high fat)): 3400 ng·h/mL | Tmax ([2]; Fed Arm (high fat), n = 8, median): 10.5 h | concentration at 5 h ([3]; dose 50 mg twice daily oral for 12 weeks, Day 2 of Week 12, read-out: CSF concentration with mean ± standard deviation): 1.07 ± 1.8 ng/mL | concentration at 5 h ([3]; dose 100 mg twice daily oral for 12 weeks, Day 2 of Week 12, read-out: CSF concentration with mean ± standard deviation): 4.36 ± 2.66 ng/mL | concentration at 5 h ([3]; dose 150 mg twice daily oral for 12 weeks, Day 2 of Week 12, read-out: CSF concentration with mean ± standard deviation): 3.87 ± 2.74 ng/mL | concentration at 5 h ([3]; oral, 5 hours post-dose on Week 12, range of means across dose groups, levels below lower limit of quantitation considered as zero, read-out: mean concentrations of 3-APS in the cerebrospinal fluid (CSF)): 2.61 to 7.33 ng/mL | crossing of the blood/brain barrier [4]: crossed the blood/brain barrier | Tmax ([5]; 50 mg BID (Table 5 tablet), Week 0 (single dose), n = 8, median): 4.5 h | Tmax ([5]; 50 mg BID (Table 5 tablet), Week 12 (repeated), n = 8, median): 4.4 h | Tmax ([5]; 100 mg BID (Table 5 tablet), Week 12 (repeated), n = 6, median): 5.15 h | Tmax ([5]; 150 mg BID (Table 5 tablet), Week 12 (repeated), n = 3, median): 5.4 h | AUC(0-inf) ([5]; 50 mg BID (Table 5 tablet), Week 0 (single dose)): 1640 ng·h/mL | Cmax ([5]; 50 mg, 50 mg BID (Table 5 tablet), Week 0 (single dose), n = 8, mean): 346 ng/mL | AUC(0-t) ([5]; 50 mg, 50 mg BID (Table 5 tablet), Week 0 (single dose), n = 8, mean, read-out: AUC0-t): 1280 ng·h/mL | Cmax ([5]; 50 mg, 50 mg BID (Table 5 tablet), Week 12 (repeated), n = 8, mean): 171 ng/mL | AUC(0-t) ([5]; 50 mg, 50 mg BID (Table 5 tablet), Week 12 (repeated), n = 8, mean, read-out: AUC0-t (AUCss for Week 12)): 947 ng·h/mL | AUC(0-inf) ([5]; 100 mg BID (Table 5 tablet), Week 0 (single dose)): 2780 ng·h/mL | Cmax ([5]; 100 mg, 100 mg BID (Table 5 tablet), Week 0 (single dose), n = 7, mean): 552 ng/mL | AUC(0-t) ([5]; 100 mg, 100 mg BID (Table 5 tablet), Week 0 (single dose), n = 7, mean, read-out: AUC0-t): 2630 ng·h/mL | Cmax ([5]; 100 mg, 100 mg BID (Table 5 tablet), Week 12 (repeated), n = 6, mean): 806 ng/mL | AUC(0-t) ([5]; 100 mg, 100 mg BID (Table 5 tablet), Week 12 (repeated), n = 6, mean, read-out: AUC0-t (AUCss for Week 12)): 3700 ng·h/mL | AUC(0-inf) ([5]; 150 mg BID (Table 5 tablet), Week 0 (single dose)): 3690 ng·h/mL | Cmax ([5]; 150 mg, 150 mg BID (Table 5 tablet), Week 0 (single dose), n = 5, mean): 857 ng/mL | AUC(0-t) ([5]; 150 mg, 150 mg BID (Table 5 tablet), Week 0 (single dose), n = 5, mean, read-out: AUC0-t): 3900 ng·h/mL | Cmax ([5]; 150 mg, 150 mg BID (Table 5 tablet), Week 12 (repeated), n = 3, mean): 1030 ng/mL | AUC(0-t) ([5]; 150 mg, 150 mg BID (Table 5 tablet), Week 12 (repeated), n = 3, mean, read-out: AUC0-t (AUCss for Week 12)): 6750 ng·h/mL | Tmax ([6]; Fed Conditions, n = 10, median): 5.5 h | AUC(0-inf) [6, 7]: 3280 ng·h/mL | Cmax [6, 7]: 772 ng/mL | AUC(0-t) [6, 7]: 3210 ng·h/mL | AUC(0-inf) ([6]; Fed Conditions, n = 10, mean): 5310 ng·h/mL | Cmax ([6]; Fed Conditions, n = 10, mean): 980 ng/mL | AUC(0-t) ([6]; Fed Conditions, n = 10, mean): 5160 ng·h/mL
